In patent US20160206688A1, “METHODS FOR TREATING BACTEREMIA AND OSTEOMYELITIS USING ORITAVANCIN” (THE MEDICINES COMPANY, priority 2013, published 2016):
Values after ≈ are worked out from the molar mass of the structure shown.

Columns and labels:
[1] = test system: VRE; experiment: Susceptibility of the subject's blood culture isolate (treatment history); type: cell-based; conditions: 2012 July
Description: 11, 2013; the plan was for at least 8 weeks of antibiotic therapy.

[2] = test system: S. aureus; experiment: Broth microdilution MIC, European bacteraemia isolates 2010-2012; type: cell-based; conditions: S. aureus Methicillin-resistant (1,708)
Protocol: (§1) A total of 2,904 clinical strains responsible for documented bacteremia among unique hospitalized patients in 38 hospitals in 11 European Union countries. Israel, Russia, Turkey and Ukraine were included in this study (2010-2012). Isolates were submitted to a central monitoring laboratory (JMI Laboratories, North Liberty. Iowa. USA), following previously established protocols. Bacterial species identification was performed by using an automated system (Vitek®2; bioMèrieux, Hazelwood, Mo., USA) or conventional biochemical algorithms, as required.
(§2) Isolates were tested for susceptibility by broth microdilution methods following the Clinical and Laboratory Standards Institute (CLSI; M07-A9, 2012) document. Susceptibility testing was performed in cation-adjusted Mueller-Hinton broth (CA-MHB) using dry-form panels manufactured by Thermo Fisher Scientific, formerly TREK Diagnostics Systems/Sensititre (Cleveland. Ohio, USA). These panels provide results equivalent to the CLSI-approved broth microdilution method supplemented with 0.002% polysorbate-80.
(§3) Quality assurance was performed by concurrent testing of CLSI-recommended (M100-S23, 2013) strains: E. faecalis ATCC 29212 and S. aureus ATCC 29213. Interpretation of comparator MIC results was in accordance with published CLSI (M100-S23) and European Committee on Antimicrobial Susceptibility Testing (EUCAST, 2013) criteria.

[3] = test system: Coagulase-negative staphylococci; experiment: as above; type: cell-based, coagulase-negative staphylococci (CoNS); conditions: Coagulase-negative staphylococci (646)
Protocol: as §1, §2, §3

[4] = test system: E. faecalis; experiment: as above; type: cell-based, Enterococcus faecalis
Protocol: as §1, §2, §3

[5] = test system: E. faecium; experiment: as above; type: cell-based, Enterococcus faecium; conditions: for % Resistant, CLSI / % Susceptible, CLSI: CLSI M100-S23 breakpoints; for % Resistant, EUCAST / % Susceptible, EUCAST: EUCAST 2013 breakpoints; for MIC90: read-out: MIC 90%
Protocol: as §1, §2, §3

[6] = test system: E. faecalis; experiment: Broth microdilution MIC, US isolates 2011-2012, blood vs non-blood; type: cell-based
Protocol: (§4) 527 E. faecalis, 176 E. faecium, and 790 BHS (335 S. pyogenes and 455 S. agalactiae) clinical, single patient, non-consecutive isolates were collected in 2011-2012 from 46 sites geographically distributed across the United States. The MICs were determined by broth microdilution testing performed in accordance with CLSI M7 and M100 guidelines. From the resulting database, this analysis focused on the activities of ORI, vancomycin (VAN), daptomycin (DAP), and linezolid (LZD) according to specimen source.

[7] = test system: E. faecium; experiment: as above; type: cell-based
Protocol: as §4

[8] = test system: S. agalactiae; experiment: as above; type: cell-based
Protocol: as §4

[9] = test system: S. pyogenes; experiment: as above; type: cell-based
Protocol: as §4

[10] = test system: MDR SA; experiment: Microdilution MIC against MDR SA by specimen source; type: cell-based, S. aureus
Protocol: 456 clinical, single-patient, non-consecutive, MDR SA isolates from the known specimen sources collected in 2011-2012 were analyzed. MDR was defined as resistant to ≧3 of the following: erythromycin, clindamycin, gentamicin, levofloxacin, and trimethoprim/sulfamethoxazole. 382 were MRSA and 74 were MSSA. MICs were determined by microdilution testing in accordance with CLSI M7 and M100 guidelines. Although other comparator drugs were tested, this analysis focuses on the activities of ORI, VAN, DAP, and LZD.

[11] = E. faecalis (445), CLSI M100-S23 breakpoints
[12] = E. faecalis (445), EUCAST 2013 breakpoints
[13] = E. faecium Vancomycin-resistant (VanA-phenotype) (153)
[14] = E. faecium Vancomycin-susceptible (257)
[15] = Table 2, E. faecium Vancomycin-susceptible (257)

With `CC(=O)NC[C@H]1CN(c2ccc(N3CCOCC3)c(F)c2)C(=O)O1` [Linezolid, linezolid] as the molecule, how does the susceptibility [1] read?
Its susceptibility is “susceptible”.

What about the “% Resistant, CLSI” value ([2]; CLSI M100-S23 breakpoints) of the same molecule?
The value was 0.0%.

What about the “% Susceptible, CLSI” value ([2]; CLSI M100-S23 breakpoints) of the same molecule?
Its value is 100.0%.

What about the “% Resistant, EUCAST” value ([2]; EUCAST 2013 breakpoints) of the same molecule?
The value was 0.0%.

And the “% Susceptible, EUCAST” value ([2]; EUCAST 2013 breakpoints)?
The value was 100.0%.

And the MIC50 ([2]; Staphylococcus aureus, Table 2, read-out: MIC 50%)?
The MIC50 was 1 µg/mL (≈ 2.96 µM).

What about the MIC90 ([2]; Staphylococcus aureus, Table 2, read-out: MIC 90%) of the same molecule?
The MIC90 was 1 µg/mL (≈ 2.96 µM).

And the “MIC Range” value ([2]; Table 2)?
The value was 0.25 to 2 µg/mL.

And the “% Resistant, CLSI” value ([3]; CLSI M100-S23 breakpoints)?
Its value is 0.8%.

What about the MIC50 ([3]; Table 2, read-out: MIC 50%) of the same molecule?
Its MIC50 is 0.5 µg/mL (≈ 1.48 µM).

And the MIC90 ([3]; Table 2, read-out: MIC 90%)?
Its MIC90 is 1 µg/mL (≈ 2.96 µM).

And the “% Resistant, CLSI” value [4, 11]?
The value was 0.0%.

And the “% Susceptible, CLSI” value [4, 11]?
Its value is 100.0%.

What about the “% Resistant, EUCAST” value [4, 12] of the same molecule?
The value was 0.0%.

What about the “% Susceptible, EUCAST” value [4, 12] of the same molecule?
The value was 100.0%.

What about the “% susceptible” value ([4]; E. faecalis strains, criteria not stated) of the same molecule?
The value was 100%.

What about the MIC50 ([4]; Enterococcus faecalis, Table 2, E. faecalis (445), read-out: MIC 50%) of the same molecule?
The MIC50 was 1 µg/mL (≈ 2.96 µM).

What about the MIC90 ([4]; Enterococcus faecalis, Table 2, E. faecalis (445), read-out: MIC 90%) of the same molecule?
The MIC90 was 2 µg/mL (≈ 5.93 µM).

What about the “MIC Range” value ([4]; Table 2, E. faecalis (445), includes four VanA-phenotype strains) of the same molecule?
Its value is 0.5 to 2 µg/mL.

And the “% Resistant, CLSI” value [5, 13]?
Its value is 3.8%.

And the “% Susceptible, CLSI” value [5, 13]?
The value was 96.2%.

And the “% Resistant, EUCAST” value [5, 13]?
Its value is 3.8%.

What about the “% Susceptible, EUCAST” value [5, 13] of the same molecule?
Its value is 96.2%.

And the “% Resistant, CLSI” value [5, 14]?
The value was 0.0%.

What about the “% Susceptible, CLSI” value [5, 14] of the same molecule?
The value was 100.0%.

And the “% Resistant, EUCAST” value [5, 14]?
The value was 0.0%.

And the “% Susceptible, EUCAST” value [5, 14]?
Its value is 100.0%.

And the MIC50 ([5]; Enterococcus faecium, Table 2, E. faecium Vancomycin-resistant (VanA-phenotype) (153), read-out: MIC 50%)?
The MIC50 was 1 µg/mL (≈ 2.96 µM).

And the MIC90 ([5]; Enterococcus faecium, Table 2, E. faecium Vancomycin-resistant (VanA-phenotype) (153))?
The MIC90 was 2 µg/mL (≈ 5.93 µM).

What about the MIC90 ([5]; Enterococcus faecium, Table 2, E. faecium Vancomycin-susceptible (257)) of the same molecule?
The MIC90 was 1 µg/mL (≈ 2.96 µM).

And the “MIC Range” value ([5]; Table 2, E. faecium Vancomycin-resistant (VanA-phenotype) (153))?
The value was 0.5 to 8 µg/mL.

And the “MIC 50%” value [5, 15]?
Its value is 1 µg/mL (≈ 2.96 µM).

What about the “MIC Range” value [5, 15] of the same molecule?
The value was 0.25 to 2 µg/mL.

What about the “% susceptible” value ([5]; VanA-phenotype E. faecium, criteria not stated) of the same molecule?
The value was 96.2%.

What about the MIC90 ([6]; Blood, N 116) of the same molecule?
The MIC90 was 2 µg/mL (≈ 5.93 µM).

What about the MIC90 ([6]; Non-Blood, N 411) of the same molecule?
The MIC90 was 2 µg/mL (≈ 5.93 µM).

And the MIC90 ([7]; Blood, N 84)?
The MIC90 was 2 µg/mL (≈ 5.93 µM).

And the MIC90 ([7]; Non-Blood, N 92)?
The MIC90 was 2 µg/mL (≈ 5.93 µM).

What about the MIC90 ([8]; Blood, N 100) of the same molecule?
The MIC90 was 1 µg/mL (≈ 2.96 µM).

And the MIC90 ([8]; Non-Blood, N 355)?
Its MIC90 is 1 µg/mL (≈ 2.96 µM).

And the MIC90 ([9]; Blood, N 53)?
The MIC90 was 1 µg/mL (≈ 2.96 µM).

What about the MIC90 ([9]; Non-Blood, N 282) of the same molecule?
The MIC90 was 1 µg/mL (≈ 2.96 µM).

And the MIC50 ([10]; Blood, n = 108)?
The MIC50 was 2 µg/mL (≈ 5.93 µM).

And the MIC90 ([10]; Blood, n = 108)?
Its MIC90 is 2 µg/mL (≈ 5.93 µM).

What about the Mode (MIC) ([10]; Blood, n = 108) of the same molecule?
The Mode (MIC) was 2 µg/mL.

And the MIC50 ([10]; Respiratory, N = 157)?
Its MIC50 is 2 µg/mL (≈ 5.93 µM).

And the MIC90 ([10]; Respiratory, N = 157)?
Its MIC90 is 2 µg/mL (≈ 5.93 µM).

And the Mode (MIC) ([10]; Respiratory, N = 157)?
The Mode (MIC) was 2 µg/mL.

What about the MIC50 ([10]; Skin/Wound, N = 191) of the same molecule?
Its MIC50 is 2 µg/mL (≈ 5.93 µM).

What about the MIC90 ([10]; Skin/Wound, N = 191) of the same molecule?
The MIC90 was 2 µg/mL (≈ 5.93 µM).

What about the Mode (MIC) ([10]; Skin/Wound, N = 191) of the same molecule?
Its Mode (MIC) is 2 µg/mL.

Which susceptibility [1] does the source give for `CN(C)c1cc(NC(=O)CNC(C)(C)C)c(O)c2c1C[C@H]1C[C@H]3[C@H](N(C)C)C(O)=C(C(N)=O)C(=O)[C@@]3(O)C(O)=C1C2=O` [tigecycline] here?
Its susceptibility is “susceptible”.
